According to patent US12134594B2, “Composition and application thereof as antitumor drug” (Guangdong Jianersheng Pharmaceutical Technology Co., Ltd., priority 2018, dated 2024):

Key:
rats = experiment: acute oral lethal dose (LD50) in rats; assay type: in vivo, rat
Source text: (§1) According to the technical solutions provided by the present disclosure, the disclosure has the following beneficial effects: • 1. The novel compound in the composition has a high chelating effect on the platinum-based antitumor compound and toxic heavy metals. […] For example, in a test performed in a mouse model with 4T1 breast carcinoma xenografts, the composition combined treatment could better delay tumor growth and inhibit metastasis than administrating the platinum-based antitumor compound alone. • 4. […] Co-treatment using the composition could greatly reduce systemic toxicity in mice and reduce weight loss caused by administrating the platinum-based antitumor compound alone.

[1] = blood BUN and creatinine (kidney injury markers) in 4T1 mouse model; assay type: in vivo; settings: 3 weeks
Description: The control group was intraperitoneally (i.p.) administrated with 0.9% normal saline. […] All mice were treated for 3 weeks.
An EDTA tube was used to collect whole blood for a complete blood count (CBC) test. Plasma was collected by centrifugation blood collected in a heparin-coated tube. The plasma was used to carry out tests and analyses including CBC and a blood chemical test; plasma BUN and creatinine level were markers of kidney injury.
A 4T1 breast cancer mouse model was used to evaluate the antitumor ability and protective effect of the novel compound. […] When the novel compound was used for intervention, BUN level dropped by 46% to 47.6 mg/dl.

HK2 cells [2] = experiment: in vitro MTT cell viability assay, HK2 cells; assay type: cell-based, human
Description: (§2) The cells involved in this example include a human renal proximal tubular cell line HK2 ([…]2190), a pig proximal tubular cell line LLC-PK1 ([…] 101) and a mouse breast cancer cell line 4[…]2539), which were all purchased from American Type Culture Collection. LLC-PK1 cells were cultured in Dulbecco modified Eagle's medium (DMEM), HK2 cells were cultured in DMEM/F12 medium, and 4T1 cells were cultured in RPMI 1640 medium. All cell media were supplemented with 10% FBS, 100 units/ml penicillin and 100 […]. The cell lines were incubated at 37° C. in a 5% CO2 atmosphere and subcultured twice a week. 3.2 In vitro cell viability assay The HK2 cells and the LLC-PK1 cells were treated with trypsin and inoculated in a 100 μL medium in a 96-well plate at a density of 10,000 cells/well. The cells were incubated for 24 h before treatment. To examine the toxicity of the novel compound, the cells were treated with different doses of the novel compound for 24 h. […] The medium was then changed, and the cells were treated with different doses of the novel compound for 48 h. After treatment, cell viability was measured by an MTT assay. 10 μL of a 12 mM MTT (3-(4,5-dimethylthiazol-2-yl)-2,5-diphenyltetrazolium bromide) stock solution was added into each well. After incubation for 4 h at 37° C., the medium was removed; 100 μL of dimethyl sulfoxide (DMSO) was added into each well, and then the plate was incubated for 10 min at 37° C. The plate was shaken in a plate oscillator, and a plate reader (Bio-Tek) was used to measure the absorbance at 570 nm.

[3] = kidney histopathology (HE) in 4T1 mouse model; assay type: in vivo; settings: 3 weeks
Description: The control group was intraperitoneally (i.p.) administrated with 0.9% normal saline. […] All mice were treated for 3 weeks. Histopathological examination of mouse tissues: histopathological changes of the kidney were examined by a 4 μm-thick deparaffinized section stained with hematoxylin and eosin (HE). To evaluate tubular damages, dilation, necrosis, apoptosis, and cast formation of renal tubules were assessed via 10 different fields of view (Zeiss Axio imager electrofluorescence microscope) at the cortical medullary junction of the kidney.

[4] = metal and platinum amount in kidney by ICP-MS; assay type: in vivo, mouse
Description: The control group was intraperitoneally (i.p.) administrated with 0.9% normal saline. […] All mice were treated for 3 weeks. The kidney was sliced, weighed and dissolved in 70% HNO3; blood plasma was diluted with 70% HNO3. The sample was heated by a 100° C. hot block until thoroughly evaporated. All solid residues were re-dissolved in 5 mL of 2% HNO3. Platinum was quantified by inductively coupled plasma mass spectrometry (ICP-MS).

mice = experiment: acute oral lethal dose (LD50) in mice; assay type: in vivo, mouse
Source text: as §1

LLC-PK1 cells = experiment: in vitro MTT cell viability assay, LLC-PK1 cells; assay type: cell-based, pig
Description: as §2

HK2 cells [5] = experiment: platinum content in HK2 cells by ICP-MS; assay type: cell-based, human
Description: The amount of platinum in the cells was determined by an IPC-MS assay.
Platinum concentration was 8.33 ng/10^6 cells. […] Platinum concentration in the HK2 cells dropped by 38.0% to 5.16 ng/10^6 cells as a result.

[6] = after administration of cisplatin and GMDTC

CSCC[C@@H](C(=O)[O-])N(C[C@H](O)[C@@H](O)[C@H](O)[C@H](O)CO)C(=S)[S-].[Na+].[Na+] [GMDTC, sodium (S)-2-(dithiocarboxylate ((2S,3R,4R,5R)-2,3,4,5,6-pentahydroxyhexyl)amino)-4-(methylthio)butyrate]
acute oral lethal dose (LD50) (rats): greater than 10,000 mg/kg
drop of BUN level ([1]; cisplatin + 500 mg/kg novel compound vs cisplatin alone): 46%
BUN level ([1]; mice, 5 mg/kg cisplatin twice a week + 500 mg/kg novel compound 2 h after cisplatin): 47.6 mg/dL
impact on viability of HK2 cells compared with blank control (HK2 cells [2]; 1000 μM, 24 h, MTT): not significantly
cell viability (HK2 cells [2]; HK2 cells pretreated with 300 μM cisplatin 30 min, then GMDTC for 48 h (FIG. 4)): 60 % of that of the control group
cell viability (HK2 cells [2]; HK2 cells, 50 μM cisplatin + increasing doses of novel compound, 24 h (FIG. 3A)): 80%
IC50 (HK2 cells [2]; HK2 cells, 24 h, MTT, read-out: IC50 (toxicity, cell viability)): ~8 mM
kidney histopathology ([3]; mice co-treated with cisplatin and 500 mg/kg novel compound, compared with control group): no significant difference
effect on amount and distribution of normal (essential) metals in the body ([4]; mice, ICP-MS, compared with control mice (Table 1 and Table 2)): does not affect
acute oral lethal dose (LD50) (mice): greater than 10,000 mg/kg
impact on viability of LLC-PK1 cells compared with blank control (LLC-PK1 cells; 400 μM, 24 h, MTT): not significantly
cytotoxicity on co-treatment (LLC-PK1 cells; LLC-PK1 cells, 50 μM cisplatin + novel compound, 24 h (FIG. 3B)): reduce cytotoxicity
IC50 (LLC-PK1 cells; LLC-PK1 cells, 24 h, MTT, read-out: IC50 (toxicity, cell viability)): ~8 mM
drop of platinum concentration in HK2 cells (HK2 cells [5]; 50 μM cisplatin + 1000 μM novel compound vs cisplatin alone): 91.5%
platinum concentration in HK2 cells (HK2 cells [5]; 50 μM cisplatin co-administrated with 1000 μM novel compound, 24 h): 17.2 ng/10^6 cells
platinum concentration in HK2 cells (HK2 cells [5]; cisplatin exposure 30 min, then 1000 μM novel compound intervention, 48 h): 5.16 ng/10^6 cells
drop of platinum concentration in HK2 cells (HK2 cells [5]; rescue with 1000 μM novel compound after 30 min cisplatin vs no rescue): 38.0%

N.N.[Cl][Pt][Cl] [cisplatin]
average BUN level ([1]; mice, 5 mg/kg cisplatin i.p. twice a week): 87.9 mg/dL
kidney histopathology ([3]; mice treated with 5 mg/kg cisplatin twice a week, 5 mg/kg): extensive necrosis and degeneration
kidney histopathology ([3]; mice treated with 5 mg/kg cisplatin twice a week, listed as Cisplatin, 5 mg/kg): extensive necrosis and degeneration of tubule cells
Amount in kidney: 27Al [4, 6]: 3.93 µg/g
Amount in kidney: 55Mn [4, 6]: 0.92 µg/g
Amount in kidney: 65Cu [4, 6]: 4.13 µg/g
Amount in kidney: 66Zn [4, 6]: 24.4 µg/g
Amount in kidney: 195Pt [4, 6]: 9.841 µg/g
platinum concentration in HK2 cells (HK2 cells [5]; 50 μM cisplatin, 24 h): 202.6 ng/10^6 cells
platinum concentration in HK2 cells (HK2 cells [5]; cisplatin (300 μM) exposure 30 min, removed, cultured 48 h): 8.33 ng/10^6 cells
